According to patent US20150245596A1, “MELANOCORTIN RECEPTOR MUTANT MOUSE AND USES THEREOF” (THE GENERAL HOSPITAL CORPORATION, priority 2012, published 2015):
Entries after “also recorded” stand apart in the source; their conditions may differ.

Key:
redhead-BRaf^CA melanoma = assay: In vivo PLX4720 study, mouse chow containing PLX4720; details: 4 weeks of mouse chow containing 2% PLX4720 by weight, n=3
Procedure: At 6-10 weeks of age the dorsal fur was trimmed using animal shears with a 0.25 mm head and the mice were treated topically with 20 mg/ml tamoxifen for 5 consecutive days. […] For in vivo PLX4720 studies, animals were given ad libitum mouse chow containing 2% PLX4720 by weight or control chow acquired from Plexxikon Inc. All studies and procedures involving animal subjects were approved by the Institutional Animal Care and Use Committees of Massachusetts General Hospital and Dana-Farber Harvard Cancer Center and were conducted strictly in accordance with the approved animal handling protocol.

[1] = tested on: melanocytic markers (Mitf, Dct, Tyrp1 mRNA); assay: Quantitative RT-PCR of melanocytic markers in primary cultured tumor cells; format: cell-based, mouse; details: 2 μM PLX4720, mRNA normalized to 18s rRNA and 0 h timepoint
Procedure: RNA was harvested from primary cultured tumor cells treated for varying times with forskolin or PLX4720 using the RNeasy Plus mini kit (QIAGEN). mRNA expression of melanocytic markers was determined using intron-spanning mouse-specific primers with Kapa SYBR FAST qPCR master mix (KAPA BIOSYSTEMS). Expression was normalized to 18s rRNA and 0 hour time-points.

[2] = tested on: primary cell line derived from one of the redhead (BRaf^V600E-Mc1r^e/e) melanomas; details: redhead-derived melanoma cells
Procedure: (§1) Tumor cells were digested overnight in 10 mg/ml collagenase and 1 mg/ml hyaluronidase. Initially tumor cells were grown in RPMI media with HEPES and 20% serum. Subsequently tumor cells were grown in DMEM media with 10% serum.

[3] = tested on: primary cell line derived from one of the redhead (BRaf^V600E-Mc1r^e/e) melanomas; assay: cells; details: Mus musculus, 72 h, read-out: GI50, melanoma cell proliferation
Procedure: as §1

SMILES | melanoma growth in vivo (redhead-BRaf^CA melanoma) | expression of melanocytic markers [1] | melanoma cell proliferation in vitro [2] | GI50 [3]
CCCS(=O)(=O)Nc1ccc(F)c(C(=O)c2c[nH]c3ncc(Cl)cc23)c1F [PLX4720] | blocked tumor cell growth in vivo; also recorded: blocks melanoma growth in vivo | upregulates | prevented melanoma cell proliferation in vitro | 0.5 µM
N#CC(=C(/N)Sc1ccccc1N)/C(C#N)=C(\N)Sc1ccccc1N [U0126] | – | – | prevented melanoma cell proliferation in vitro | 2 µM
